What was measured:
HeLa [1] = assay: Antiproliferative activity against human HeLa cells at 50 ug/ml after 24 hrs by BrdUrd incorporation assay; assay type: functional; conditions: read-out: GI
HeLa [2] = assay: Antiproliferative activity against human HeLa cells at 50 ug/ml after 48 hrs by BrdUrd incorporation assay; assay type: functional; conditions: read-out: GI
HeLa [3] = assay: Antiproliferative activity against human HeLa cells at 50 ug/ml after 72 hrs by BrdUrd incorporation assay; assay type: functional; conditions: read-out: GI
T47D [4] = assay: Antiproliferative activity against human T47D cells at 50 ug/ml after 24 hrs by BrdUrd incorporation assay; assay type: functional; conditions: read-out: GI
T47D [5] = assay: Antiproliferative activity against human T47D cells at 50 ug/ml after 48 hrs by BrdUrd incorporation assay; assay type: functional; conditions: read-out: GI
T47D [6] = assay: Antiproliferative activity against human T47D cells at 50 ug/ml after 72 hrs by BrdUrd incorporation assay; assay type: functional; conditions: read-out: GI
Vero [7] = assay: Antiproliferative activity against African green monkey Vero cells at 50 ug/ml after 24 hrs by BrdUrd incorporation assay; assay type: cell-based; conditions: chlorocebus sabaeus
[8] = Antiproliferative activity against African green monkey Vero cells at 50 ug/ml after 48 hrs by BrdUrd incorporation assay; assay type: cell-based; conditions: chlorocebus sabaeus, read-out: GI
[9] = Antiproliferative activity against African green monkey Vero cells at 50 ug/ml after 72 hrs by BrdUrd incorporation assay; assay type: cell-based; conditions: chlorocebus sabaeus, read-out: GI
A549 [10] = assay: Antiproliferative activity against human A549 cells at 50 ug/ml after 24 hrs by BrdUrd incorporation assay; assay type: functional; conditions: A549, 24 h, read-out: GI
A549 [11] = assay: Antiproliferative activity against human A549 cells at 50 ug/ml after 48 hrs by BrdUrd incorporation assay; assay type: functional; conditions: A549, 48 h, read-out: GI
A549 [12] = assay: Antiproliferative activity against human A549 cells at 50 ug/ml after 72 hrs by BrdUrd incorporation assay; assay type: functional; conditions: A549, 72 h, read-out: GI
TOV112D [13] = assay: Antiproliferative activity against human TOV112D cells at 50 ug/ml after 24 hrs by BrdUrd incorporation assay; assay type: functional; conditions: read-out: GI
TOV112D [14] = assay: Antiproliferative activity against human TOV112D cells at 50 ug/ml after 48 hrs by BrdUrd incorporation assay; assay type: functional; conditions: read-out: GI
TOV112D [15] = assay: Antiproliferative activity against human TOV112D cells at 50 ug/ml after 72 hrs by BrdUrd incorporation assay; assay type: functional; conditions: read-out: GI
Vero [16] = assay: Antiproliferative activity against African green monkey Vero cells after 24 hrs by BrdUrd incorporation assay; assay type: cell-based; conditions: chlorocebus sabaeus
Vero [17] = assay: Antiproliferative activity against African green monkey Vero cells after 48 hrs by BrdUrd incorporation assay; assay type: cell-based; conditions: Chlorocebus sabaeus
Vero [18] = assay: Antiproliferative activity against African green monkey Vero cells after 72 hrs by BrdUrd incorporation assay; assay type: cell-based; conditions: Chlorocebus sabaeus
A549 [19] = assay: Antiproliferative activity against human A549 cells after 24 hrs by BrdUrd incorporation assay; assay type: functional, cell-based; conditions: A549, 24 h
A549 [20] = assay: Antiproliferative activity against human A549 cells after 48 hrs by BrdUrd incorporation assay; assay type: functional, cell-based; conditions: A549, 48 h
A549 [21] = assay: Antiproliferative activity against human A549 cells after 72 hrs by BrdUrd incorporation assay; assay type: functional, cell-based; conditions: A549, 72 h
HeLa [22] = assay: Antiproliferative activity against human HeLa cells after 24 hrs by BrdUrd incorporation assay; assay type: functional, cell-based
HeLa [23] = assay: Antiproliferative activity against human HeLa cells after 48 hrs by BrdUrd incorporation assay; assay type: functional, cell-based
HeLa [24] = assay: Antiproliferative activity against human HeLa cells after 72 hrs by BrdUrd incorporation assay; assay type: functional, cell-based
T47D [25] = assay: Antiproliferative activity against human T47D cells after 24 hrs by BrdUrd incorporation assay; assay type: functional, cell-based
T47D [26] = assay: Antiproliferative activity against human T47D cells after 48 hrs by BrdUrd incorporation assay; assay type: functional, cell-based
T47D [27] = assay: Antiproliferative activity against human T47D cells after 72 hrs by BrdUrd incorporation assay; assay type: functional, cell-based
TOV112D [28] = assay: Antiproliferative activity against human TOV112D cells after 24 hrs by BrdUrd incorporation assay; assay type: functional, cell-based
TOV112D [29] = assay: Antiproliferative activity against human TOV112D cells after 48 hrs by BrdUrd incorporation assay; assay type: functional, cell-based
TOV112D [30] = assay: Antiproliferative activity against human TOV112D cells after 72 hrs by BrdUrd incorporation assay; assay type: functional, cell-based

IC50 (A549 [19]) [µM] | IC50 (A549 [20]) [µM] | SMILES | inhibition of growth at 50 µg/mL (HeLa [1]) [%] | inhibition of growth at 50 µg/mL (HeLa [2]) [%] | inhibition of growth at 50 µg/mL (HeLa [3]) [%] | inhibition of growth at 50 µg/mL (T47D [4]) [%] | inhibition of growth at 50 µg/mL (T47D [5]) [%] | inhibition of growth at 50 µg/mL (T47D [6]) [%] | growth inhibition (GI) (Vero [7]) [%] | inhibition at 48 h, 50 ug/ml [8] [%] | inhibition at 72 h, 50 ug/ml [9] [%] | inhibition of growth at 50 µg/mL (A549 [10]) [%] | inhibition of growth at 50 µg/mL (A549 [11]) [%] | inhibition of growth at 50 µg/mL (A549 [12]) [%] | inhibition of growth at 50 µg/mL (TOV112D [13]) [%] | inhibition of growth at 50 µg/mL (TOV112D [14]) [%] | inhibition of growth at 50 µg/mL (TOV112D [15]) [%] | IC50 (Vero [16]) [µM] | IC50 (Vero [17]) [µM] | IC50 (Vero [18]) [µM] | further results
 |  | Cc1cccc(N2CCn3c2nnc(-c2ccco2)c3=O)c1C | 60 | 75 | 90 | 0 | 15 | 25 |  |  |  |  |  |  |  |  |  |  |  |  | 
90 | 80 | O=c1c(-c2cccs2)nnc2n1CCN2c1ccc(Cl)cc1 | 50 | 90 | 100 | 90 | 100 | 100 | 25 | 60 | 90 | 80 | 90 | 100 | 75 | 90 | 100 | > 150 | 130 | 80 | IC50 (A549 [21]): 80 µM; IC50 (HeLa [22]): 150 µM; IC50 (HeLa [23]): 80 µM; IC50 (HeLa [24]): 80 µM; IC50 (T47D [25]): 80 µM; IC50 (T47D [26]): 80 µM; IC50 (T47D [27]): 80 µM; IC50 (TOV112D [28]): 100 µM; IC50 (TOV112D [29]): 80 µM; IC50 (TOV112D [30]): 80 µM
> 150 | 130 | Cc1cccc(N2CCn3c2nnc(-c2cccs2)c3=O)c1C | 50 | 65 | 75 | 90 | 100 | 100 | 25 | 55 | 90 | 45 | 60 | 90 | 40 | 75 | 95 | > 150 | 140 | 90 | IC50 (A549 [21]): 90 µM; IC50 (HeLa [22]): 150 µM; IC50 (HeLa [23]): 120 µM; IC50 (HeLa [24]): 100 µM; IC50 (T47D [25]): 90 µM; IC50 (T47D [26]): 80 µM; IC50 (T47D [27]): 80 µM; IC50 (TOV112D [28]): > 150 µM; IC50 (TOV112D [29]): 100 µM; IC50 (TOV112D [30]): 80 µM
 |  | O=c1c(-c2ccco2)nnc2n1CCN2c1ccccc1 | 50 | 75 | 100 | 50 | 85 | 95 |  |  |  |  |  |  |  |  |  |  |  |  | 
 |  | O=c1c(-c2ccco2)nnc2n1CCN2c1ccc(Cl)c(Cl)c1 | 50 | 50 | 95 | 10 | 20 | 40 |  |  |  |  |  |  |  |  |  |  |  |  | 
80 | 80 | O=c1c(-c2cccs2)nnc2n1CCN2c1cccc(Cl)c1 | 90 | 100 | 100 | 100 | 100 | 100 | 100 | 100 | 100 | 90 | 100 | 100 | 90 | 100 | 100 | 80 | 80 | 80 | IC50 (A549 [21]): 80 µM; IC50 (HeLa [22]): 80 µM; IC50 (HeLa [23]): 80 µM; IC50 (HeLa [24]): 80 µM; IC50 (T47D [25]): 80 µM; IC50 (T47D [26]): 80 µM; IC50 (T47D [27]): 80 µM; IC50 (TOV112D [28]): 80 µM; IC50 (TOV112D [29]): 80 µM; IC50 (TOV112D [30]): 80 µM
 |  | O=c1c(-c2ccco2)nnc2n1CCN2c1cccc(Cl)c1 | 80 | 80 | 95 | 20 | 50 | 80 |  |  |  |  |  |  |  |  |  |  |  |  | 
 |  | Cc1ccc(N2CCn3c2nnc(-c2ccco2)c3=O)cc1 | 50 | 50 | 80 | 40 | 60 | 80 |  |  |  |  |  |  |  |  |  |  |  |  | 
 |  | COc1ccccc1N1CCn2c1nnc(-c1ccco1)c2=O | 25 | 35 | 80 | 0 | 30 | 70 |  |  |  |  |  |  |  |  |  |  |  |  | 
100 | 80 | O=c1c(-c2cccs2)nnc2n1CCN2c1ccccc1Cl | 50 | 80 | 90 | 95 | 100 | 100 | 50 | 60 | 75 | 75 | 95 | 95 | 80 | 95 | 100 | 150 | 130 | 100 | IC50 (A549 [21]): 80 µM; IC50 (HeLa [22]): 150 µM; IC50 (HeLa [23]): 90 µM; IC50 (HeLa [24]): 80 µM; IC50 (T47D [25]): 80 µM; IC50 (T47D [26]): 80 µM; IC50 (T47D [27]): 80 µM; IC50 (TOV112D [28]): 90 µM; IC50 (TOV112D [29]): 80 µM; IC50 (TOV112D [30]): 80 µM
90 | 90 | Cc1ccc(N2CCn3c2nnc(-c2cccs2)c3=O)cc1 | 80 | 100 | 100 | 95 | 100 | 100 | 90 | 95 | 100 | 90 | 95 | 100 | 90 | 100 | 100 | 90 | 80 | 80 | IC50 (A549 [21]): 80 µM; IC50 (HeLa [22]): 100 µM; IC50 (HeLa [23]): 80 µM; IC50 (HeLa [24]): 80 µM; IC50 (T47D [25]): 90 µM; IC50 (T47D [26]): 80 µM; IC50 (T47D [27]): 80 µM; IC50 (TOV112D [28]): 90 µM; IC50 (TOV112D [29]): 80 µM; IC50 (TOV112D [30]): 80 µM
 |  | O=c1c(-c2ccco2)nnc2n1CCN2c1ccccc1Cl | 80 | 80 | 100 | 5 | 15 | 25 |  |  |  |  |  |  |  |  |  |  |  |  | 
 |  | O=c1c(-c2ccco2)nnc2n1CCN2c1ccc(Cl)cc1 | 50 | 75 | 90 | 0 | 15 | 15 |  |  |  |  |  |  |  |  |  |  |  |  | 
 |  | Cc1ccccc1N1CCn2c1nnc(-c1ccco1)c2=O | 25 | 25 | 50 | 25 | 50 | 75 |  |  |  |  |  |  |  |  |  |  |  |  | 

— ChEMBL document CHEMBL3596165, “Synthesis, structure elucidation and identification of antiproliferative activities of a novel class of thiophene bioisosteres bearing the privileged 7,8-dihydroimidazo[2,1-c][1,2,4]triazin-4(6H)-one scaffold” (Bioorg Med Chem, 2015)
